In patent US11702646B2, “Methods for modulating RNA splicing” (PTC THERAPEUTICS, INC., priority 2016, dated 2023):

Test system: RNA transcripts in PNN cell line
Test: ΔPSI (iExon production / exon inclusion), FET and Fold Decrease of RNA transcripts in PNN cell line treated at 3 μM
Type: cell-based
Conditions: for FD PNN: Fold Decrease
Method: Results: The statistically significant value for the likelihood of iExon production (ΔPSI) according to the Fisher's Exact Test (FET) for PNN and HDF cell lines treated with Compound 774 at 3 μM and Fold Decrease (FD) for certain genes tested, where NR represents “Not Reported,” is shown in Table 10.
(§1) The ΔPSI for inclusion of an iExon and resulting modulated expression of RNA transcripts identified is represented by stars, where one star (*) represents ≤25% change in expression, where two stars (**) represent change in expression in a range from <26% to ≤50% change, where three stars (***) represent change in expression in a range from <51% to ≤75% change, and, where four stars (****) represent change in expression in a range from <75% to ≤100% change.
Results: The statistically significant value for the likelihood of exon inclusion (ΔPSI) according to the Fisher's Exact Test (FET) for PNN and HDF cell lines treated with Compound 774 at 3 μM and Fold Decrease (FD) for certain genes tested, where NR represents “Not Reported,” is shown in Table 10a.
as §1, with “exon” for “iExon”

[1] = gene FAM198B, exon e3, PNN cells, 3 μM
[2] = gene PRUNE2, exon e18, PNN cells, 3 μM

In the case of `CCc1nc(C)cn2nc(-c3cc(=O)n4cc(C5CCN(C)CC5)cc(C)c4n3)cc12` [Compound 774], the “FD PNN” value [1] is reported as −1.81, the “FD PNN” value [2] is reported as −0.52 and the “ΔPSI (PNN)” value (gene APLP2, exon e7, PNN cells, 3 μM) is reported as “** (two stars (**) represent change in expression in a range from <26% to ≤50% change)”. For the same compound, the “ΔPSI (PNN)” value (gene AXIN1, exon e9, PNN cells, 3 μM) was “** (two stars (**) represent change in expression in a range from <26% to ≤50% change)”, the “ΔPSI (PNN)” value (gene CECR7, exon e5, PNN cells, 3 μM) was “* (one star (*) represents ≤25% change in expression)” and the “ΔPSI (PNN)” value (gene DAGLB, exon e4, PNN cells, 3 μM) was “* (one star (*) represents ≤25% change in expression)”. The “ΔPSI (PNN)” value (gene DLGAP4, exon e8, PNN cells, 3 μM) was “* (one star (*) represents ≤25% change in expression)”, the “ΔPSI (PNN)” value (gene ERCC1, exon e8, PNN cells, 3 μM) was “* (one star (*) represents ≤25% change in expression)” and the “ΔPSI (PNN)” value (gene ERGIC3, exon e8, PNN cells, 3 μM) was “* (one star (*) represents ≤25% change in expression)”. For the same compound, the “ΔPSI (PNN)” value [1] was “* (one star (*) represents ≤25% change in expression)”, the “ΔPSI (PNN)” value (gene GGCT, exon e2, PNN cells, 3 μM) was “** (two stars (**) represent change in expression in a range from <26% to ≤50% change)” and the “ΔPSI (PNN)” value (gene HAT1, exon e3, PNN cells, 3 μM) was “* (one star (*) represents ≤25% change in expression)”. The “ΔPSI (PNN)” value (gene HPS1, exon e5, PNN cells, 3 μM) was “* (one star (*) represents ≤25% change in expression)”, the “ΔPSI (PNN)” value (gene INPP5K, exon e2, PNN cells, 3 μM) was “* (one star (*) represents ≤25% change in expression)” and the “ΔPSI (PNN)” value (gene MADD, exon e21, PNN cells, 3 μM) was “* (one star (*) represents ≤25% change in expression)”. For the same compound, the “ΔPSI (PNN)” value (gene PPHLN1, exon e3, PNN cells, 3 μM) was “*** (three stars (***) represent change in expression in a range from <51% to ≤75% change)”, the “ΔPSI (PNN)” value [2] was “* (one star (*) represents ≤25% change in expression)” and the “ΔPSI (PNN)” value (gene RAP1A, exon e2, PNN cells, 3 μM) was “* (one star (*) represents ≤25% change in expression)”. For the same compound, the “ΔPSI (PNN)” value (gene RNFT1, exon e3, PNN cells, 3 μM) was “* (one star (*) represents ≤25% change in expression)”, the “ΔPSI (PNN)” value (gene RPS6KB2, exon e2, PNN cells, 3 μM) was “* (one star (*) represents ≤25% change in expression)” and the “ΔPSI (PNN)” value (gene SH3YL1, exon e9, PNN cells, 3 μM) was “* (one star (*) represents ≤25% change in expression)”. The “ΔPSI (PNN)” value (gene SKA2, exon e3, PNN cells, 3 μM) was “* (one star (*) represents ≤25% change in expression)”, the “ΔPSI (PNN)” value (gene SPATA18, exon e4, PNN cells, 3 μM) was “** (two stars (**) represent change in expression in a range from <26% to ≤50% change)” and the “ΔPSI (PNN)” value (gene STRN3, exon e8, PNN cells, 3 μM) was “**** (four stars (****) represent change in expression in a range from <75% to ≤100% change)”. The “ΔPSI (PNN)” value (gene TMEM189-UBE2V1, exon e6, PNN cells, 3 μM) was “* (one star (*) represents ≤25% change in expression)”, the “ΔPSI (PNN)” value (gene TRIM65, exon e5, PNN cells, 3 μM) was “*** (three stars (***) represent change in expression in a range from <51% to ≤75% change)” and the “ΔPSI (PNN)” value (gene TUBE1, exon e4, PNN cells, 3 μM) was “* (one star (*) represents ≤25% change in expression)”. For the same compound, the “ΔPSI (PNN)” value (gene UBE2V1, exon e3, PNN cells, 3 μM) was “* (one star (*) represents ≤25% change in expression)”, the “ΔPSI (PNN)” value (gene VPS29, exon e2, PNN cells, 3 μM) was “** (two stars (**) represent change in expression in a range from <26% to ≤50% change)” and the “ΔPSI (PNN)” value (gene ZFP82, iExon inclusion position i4, PNN cell line, Compound 774 at 3 μM) was “** (two stars (**) represent change in expression in a range from <26% to ≤50% change)”. The “ΔPSI (PNN)” value (gene ZNF37BP, iExon inclusion position i4, PNN cell line, Compound 774 at 3 μM) was “**** (four stars (****) represent change in expression in a range from <75% to ≤100% change)”, the “ΔPSI (PNN)” value (gene ZNF138, iExon inclusion position i3, PNN cell line, Compound 774 at 3 μM) was “*** (three stars (***) represent change in expression in a range from <51% to ≤75% change)” and the “ΔPSI (PNN)” value (gene ZNF232, iExon inclusion position i4, PNN cell line, Compound 774 at 3 μM) was “* (one star (*) represents ≤25% change in expression)”. The “ΔPSI (PNN)” value (gene ZNF680, exon e3, PNN cells, 3 μM) was “* (one star (*) represents ≤25% change in expression)”.
